Results: US10798941B2, “Microbiocidal oxadiazole derivatives” (SYNGENTA PARTICIPATIONS AG, priority 2016, dated 2020)
Where two headings read alike, the source gives them in different places.

Assays:
[1] = system: Puccinia recondita f. Sp. Tritici; test: Puccinia recondita f. sp. tritici / wheat / leaf disc curative (brown rust); assay type: in vivo; settings: foliar, 144 h, 200 ppm in the applied formulation, wheat leaf segments cv. Kanzler, applied 1 day after inoculation, assessed 6 to 8 days after application, vs untreated, read-out: disease control
Method: (§1) Leaf disks or leaf segments of various plant species are cut from plants grown in a greenhouse. The cut leaf disks or segments are placed in multiwell plates (24-well format) onto water agar. The leaf disks are sprayed with a test solution before (preventative) or after (curative) inoculation. Compounds to be tested are prepared as DMSO solutions (max. 10 mg/ml) which are diluted to the appropriate concentration with 0.025% Tween20 just before spraying. The inoculated leaf disks or segments are incubated under defined conditions (temperature, relative humidity, light, etc.) according to the respective test system. A single evaluation of disease level is carried out 3 to 14 days after inoculation, depending on the pathosystem. Percent disease control relative to the untreated check leaf disks or segments is then calculated.
Wheat leaf segments cv. Kanzler are placed on agar in multiwell plates (24-well format). The leaf segments are then inoculated with a spore suspension of the fungus. Plates were stored in darkness at 19° C. and 75% relative humidity. The formulated test compound diluted in water was applied 1 day after inoculation. The leaf segments were incubated at 19° C. and 75% relative humidity under a light regime of 12 hours light/12 hours darkness in a climate cabinet and the activity of a compound was assessed as percent disease control compared to untreated when an appropriate level of disease damage appears in untreated check leaf segments (6 to 8 days after application).
(§2) The following compounds at 200 ppm in the applied formulation give at least 80% disease control in this test when compared to untreated control leaf disks under the same conditions, which show extensive disease development.

[2] = system: Glomerella Lagenarium (Colletotrichum Lagenarium); test: Glomerella lagenarium (Colletotrichum lagenarium) liquid culture / cucumber / preventative (anthracnose); assay type: cell-based; settings: Colletotrichum orbiculare, read-out: disease control
Method: Mycelia fragments or conidia suspensions of a fungus prepared either freshly from liquid cultures of the fungus or from cryogenic storage, are directly mixed into nutrient broth. DMSO solutions of the test compound (max. 10 mg/ml) are diluted with 0.025% Tween20 by a factor of 50 and 10 μl of this solution is pipetted into a microtiter plate (96-well format). The nutrient broth containing the fungal spores/mycelia fragments is then added to give an end concentration of the tested compound. The test plates are incubated in the dark at 24° C. and 96% relative humidity. The inhibition of fungal growth is determined photometrically after 2 to 7 days, depending on the pathosystem, and percent antifungal activity relative to the untreated check is calculated.
Conidia of the fungus from cryogenic storage are directly mixed into nutrient broth (PDB—potato dextrose broth). After placing a (DMSO) solution of test compound into a microtiter plate (96-well format), the nutrient broth containing the fungal spores is added.
The following compounds at 20 ppm in the applied formulation give at least 80% disease control in this test when compared to untreated control under the same conditions, which show extensive disease development.

[3] = system: Puccinia recondita f. Sp. Tritici; test: Puccinia recondita f. sp. tritici / wheat / leaf disc preventative (brown rust); assay type: in vivo; settings: foliar, 168 h, read-out: disease control
Method: as §1
Wheat leaf segments cv. Kanzler were placed on agar in multiwell plates (24-well format) and sprayed with the formulated test compound diluted in water. The leaf disks were inoculated with a spore suspension of the fungus 1 day after application. The inoculated leaf segments were incubated at 19° C. and 75% relative humidity (rh) under a light regime of 12 hours light/12 hours darkness in a climate cabinet and the activity of a compound was assessed as percent disease control compared to untreated when an appropriate level of disease damage appears in untreated check leaf segments (7 to 9 days after application).
as §2

[4] = 20 ppm in the applied formulation, liquid culture in PDB, 24° C., inhibition of growth measured photometrically 3 to 4 days after application, vs untreated
[5] = 200 ppm in the applied formulation, wheat leaf segments cv. Kanzler, preventative, inoculated 1 day after application, assessed 7 to 9 days after application, vs untreated

For `Fc1ccc2ccn(Cc3ccc(-c4noc(C(F)(F)F)n4)cc3)c2c1` [Compound 1.54, 3-[4-[(6-fluoroindol-1-yl)methyl]phenyl]-5-(trifluoromethyl)-1,2,4-oxadiazole], the pest or weed control at 200 ppm [1] was at least 80% and the inhibition of growth at 20 ppm [2, 4] was at least 80%.
With `FC(F)(F)c1nc(-c2ccc(Cn3cncn3)nc2)no1` [Compound 1.143, 3-[6-(1,2,4-triazol-1-ylmethyl)-3-pyridyl]-5-(trifluoromethyl)-1,2,4-oxadiazole] the pest or weed control at 200 ppm [1] was at least 80% and the inhibition of growth at 20 ppm [2, 4] was at least 80%.
For `O=C1CCc2cn(Cc3ccc(-c4noc(C(F)(F)F)n4)cc3)cc21` [Compound 1.74, 2-[[4-[5-(trifluoromethyl)-1,2,4-oxadiazol-3-yl]phenyl]methyl]-5,6-dihydrocyclopenta[c]pyrrol-4-one], the pest or weed control at 200 ppm [3, 5] was at least 80% and the inhibition of growth at 20 ppm [2, 4] was at least 80%.
Work on `FC(F)(F)c1nc(-c2ccc(Cn3cnc(Br)c3)c(Cl)c2)no1` [Compound 1.107, 3-[4-[(4-bromoimidazol-1-yl)methyl]-3-chloro-phenyl]-5-(trifluoromethyl)-1,2,4-oxadiazole] yielded a pest or weed control at 200 ppm [3, 5] of at least 80% and an inhibition of growth at 20 ppm [2, 4] of at least 80%.
In the case of `FC(F)(F)c1nc(-c2ccc(Cn3c(-c4ccncc4)nc4ccccc43)cc2)no1` [Compound 1.73, 3-[4-[[2-(4-pyridyl)benzimidazol-1-yl]methyl]phenyl]-5-(trifluoromethyl)-1,2,4-oxadiazole], the pest or weed control at 200 ppm [3, 5] is reported as at least 80% and the inhibition of growth at 20 ppm [2, 4] is reported as at least 80%.
Molecule `COC(=O)c1ncn(Cc2ccc(-c3noc(C(F)(F)F)n3)cc2F)n1` [Compound 1.122, methyl 1-[[2-fluoro-4-[5-(trifluoromethyl)-1,2,4-oxadiazol-3-yl]phenyl]methyl]-1,2,4-triazole-3-carboxylate] has a pest or weed control at 200 ppm [3, 5] of at least 80% and an inhibition of growth at 20 ppm [2, 4] of at least 80%.
`CC(=O)c1cn(Cc2ccc(-c3noc(C(F)(F)F)n3)cc2)c2ccccc12` [Compound 1.50, 1-[1-[[4-[5-(trifluoromethyl)-1,2,4-oxadiazol-3-yl]phenyl]methyl]indol-3-yl]ethanone] gave a pest or weed control at 200 ppm [3] of at least 80% and an inhibition of growth at 20 ppm [2] of at least 80%.
For `O=Cc1nccn1Cc1ccc(-c2noc(C(F)(F)F)n2)cc1` [Compound 1.71, 1-[[4-[5-(trifluoromethyl)-1,2,4-oxadiazol-3-yl]phenyl]methyl]imidazole-2-carbaldehyde], the pest or weed control at 200 ppm [1] was at least 80%.
`Cc1ccc2c(ccn2Cc2ccc(-c3noc(C(F)(F)F)n3)cc2)c1` [Compound 1.52, 3-[4-[(5-methylindol-1-yl)methyl]phenyl]-5-(trifluoromethyl)-1,2,4-oxadiazole] gave a pest or weed control at 200 ppm [3, 5] of at least 80% and an inhibition of growth at 20 ppm [2, 4] of at least 80%.
Work on `FC(F)(F)c1nc(-c2ccc(Cn3cnc4c(Cl)cccc43)cc2)no1` [Compound 1.94, 3-[4-[(4-chlorobenzimidazol-1-yl)methyl]phenyl]-5-(trifluoromethyl)-1,2,4-oxadiazole] yielded a pest or weed control at 200 ppm [3, 5] of at least 80% and an inhibition of growth at 20 ppm [2, 4] of at least 80%.
`Cc1cn(Cc2ccc(-c3noc(C(F)(F)F)n3)cc2Cl)cn1` [Compound 1.109, 3-[3-chloro-4-[(4-methylimidazol-1-yl)methyl]phenyl]-5-(trifluoromethyl)-1,2,4-oxadiazole] showed a pest or weed control at 200 ppm [3, 5] of at least 80% and an inhibition of growth at 20 ppm [2, 4] of at least 80%.
In the case of `CNC(=O)c1cn(Cc2ccc(-c3noc(C(F)(F)F)n3)cc2)nn1` [Compound 1.272, N-methyl-1-[[4-[5-(trifluoromethyl)-1,2,4-oxadiazol-3-yl]phenyl]methyl]triazole-4-carboxamide], the pest or weed control at 200 ppm [1] is reported as at least 80%.
`FC(F)(F)c1nc(-c2ccc(Cn3c(C(F)(F)F)nc4ccccc43)cc2)no1` [Compound 1.48, 5-(trifluoromethyl)-3-[4-[[2-(trifluoromethyl)benzimidazol-1-yl]methyl]phenyl]-1,2,4-oxadiazole] showed a pest or weed control at 200 ppm [3, 5] of at least 80% and an inhibition of growth at 20 ppm [2, 4] of at least 80%.
With `O=C(NCC1CC1)c1cnn(Cc2ccc(-c3noc(C(F)(F)F)n3)cc2)c1` [Compound 1.249, N-(cyclopropylmethyl)-1-[[4-[5-(trifluoromethyl)-1,2,4-oxadiazol-3-yl]phenyl]methyl]pyrazole-4-carboxamide] the pest or weed control at 200 ppm [3, 5] was at least 80% and the inhibition of growth at 20 ppm [2, 4] was at least 80%.
With `FC(F)(F)c1nc(-c2ccc(Cn3ccnc3-c3ccccc3)cc2)no1` [Compound 1.47, 3-[4-[(2-phenylimidazol-1-yl)methyl]phenyl]-5-(trifluoromethyl)-1,2,4-oxadiazole] the pest or weed control at 200 ppm [3, 5] was at least 80% and the inhibition of growth at 20 ppm [2, 4] was at least 80%.
Molecule `CON=C1CCN(Cc2ccc(-c3noc(C(F)(F)F)n3)cc2)CC1` [Compound 1.293, N-methoxy-1-[[4-[5-(trifluoromethyl)-1,2,4-oxadiazol-3-yl]phenyl]methyl]piperidin-4-imine] has a pest or weed control at 200 ppm [1] of at least 80%.
`FC(F)(F)c1nc(-c2ccc(Cn3ccnc3)c(Cl)c2)no1` [Compound 1.112, 3-[3-chloro-4-(imidazol-1-ylmethyl)phenyl]-5-(trifluoromethyl)-1,2,4-oxadiazole] gave a pest or weed control at 200 ppm [3, 5] of at least 80% and an inhibition of growth at 20 ppm [2, 4] of at least 80%.
`COc1ccc2c(c1)c(C=O)cn2Cc1ccc(-c2noc(C(F)(F)F)n2)cc1` [Compound 1.57, 5-methoxy-1-[[4-[5-(trifluoromethyl)-1,2,4-oxadiazol-3-yl]phenyl]methyl]indole-3-carbaldehyde] gave a pest or weed control at 200 ppm [3, 5] of at least 80% and an inhibition of growth at 20 ppm [2, 4] of at least 80%.
`CCc1nc2ccccc2n1Cc1ccc(-c2noc(C(F)(F)F)n2)cc1` [Compound 1.63, 3-[4-[(2-ethylbenzimidazol-1-yl)methyl]phenyl]-5-(trifluoromethyl)-1,2,4-oxadiazole] showed a pest or weed control at 200 ppm [3, 5] of at least 80% and an inhibition of growth at 20 ppm [2, 4] of at least 80%.
In the case of `N#Cc1ccn(Cc2ccc(-c3noc(C(F)(F)F)n3)cc2)c1` [Compound 1.60, 1-[[4-[5-(trifluoromethyl)-1,2,4-oxadiazol-3-yl]phenyl]methyl]pyrrole-3-carbonitrile], the pest or weed control at 200 ppm [3, 5] is reported as at least 80% and the inhibition of growth at 20 ppm [2, 4] is reported as at least 80%.
`Fc1ccc(-c2nccn2Cc2ccc(-c3noc(C(F)(F)F)n3)cc2)cc1` [Compound 1.65, 3-[4-[[2-(4-fluorophenyl)imidazol-1-yl)methyl]phenyl]-5-(trifluoromethyl)-1,2,4-oxadiazole] gave a pest or weed control at 200 ppm [3, 5] of at least 80% and an inhibition of growth at 20 ppm [2, 4] of at least 80%.
For `COC(=O)c1ncn(Cc2ccc(-c3noc(C(F)(F)F)n3)cc2Cl)n1` [Compound 1.108, methyl 1-[[2-chloro-4-[5-(trifluoromethyl)-1,2,4-oxadiazol-3-yl]phenyl]methyl]-1,2,4-triazole-3-carboxylate], the pest or weed control at 200 ppm [3, 5] was at least 80% and the inhibition of growth at 20 ppm [2, 4] was at least 80%.
For `N#CCc1nc2ccccc2n1Cc1ccc(-c2noc(C(F)(F)F)n2)cc1` [Compound 1.58, 2-[1-[[4-[5-(trifluoromethyl)-1,2,4-oxadiazol-3-yl]phenyl]methyl]benzimidazol-2-yl]acetonitrile], the pest or weed control at 200 ppm [3, 5] was at least 80% and the inhibition of growth at 20 ppm [2, 4] was at least 80%.
For `Cc1cn(Cc2ccc(-c3noc(C(F)(F)F)n3)cn2)c(C)n1` [Compound 1.134, 3-[6-[(2,4-dimethylimidazol-1-yl)methyl]-3-pyridyl]-5-(trifluoromethyl)-1,2,4-oxadiazole], the pest or weed control at 200 ppm [1] was at least 80%.
Work on `Cc1cn(Cc2ccc(-c3noc(C(F)(F)F)n3)cc2)c(C)n1` [Compound 1.78, 3-[4-[(2,4-dimethylimidazol-1-yl)methyl]phenyl]-5-(trifluoromethyl)-1,2,4-oxadiazole] yielded a pest or weed control at 200 ppm [1] of at least 80%.
With `COc1ccc2c(ccn2Cc2ccc(-c3noc(C(F)(F)F)n3)cc2)c1` [Compound 1.75, 3-[4-[(5-methoxyindol-1-yl)methyl]phenyl]-5-(trifluoromethyl)-1,2,4-oxadiazole] the pest or weed control at 200 ppm [3, 5] was at least 80% and the inhibition of growth at 20 ppm [2, 4] was at least 80%.
